In patent publication US20200323849A1, “COMBINATIONS OF HISTONE DEACETYLASE INHIBITORS AND IMMUNOMODULATORY DRUGS” (Acetylon Pharmaceuticals, Inc., priority 2013, published 2020):
One block for each molecule: values may come before it.

What was measured:
[1] = system: acetylated histones (a marker of class 1 HDAC inhibition); test: Phase 1b PD: acetylated histones in PBMC; assay type: in vivo, human; details: at ≥80 mg Compound A
Protocol: (§4) In Part A of the trial, patients were treated with escalating doses of oral Compound A in combination with a standard dose and schedule of lenalidomide and dexamethasone on days 1-5 and 8-12 of a 28 day cycle. For example, the patients in cohort 1 received 40 mg of Compound A, 15 mg of Compound E, and 40 mg of dexamethasone per day; the patients in cohort 2 received 40 mg of Compound A, 25 mg of Compound E, and 40 mg of dexamethasone per day; the patients in cohort 3 received 80 mg of Compound A, 25 mg of Compound E, and 40 mg of dexamethasone per day; the patients in cohort 4 received 160 mg of Compound A, 25 mg of Compound E, and 40 mg of dexamethasone per day; and the patients in cohort 5 received 240 mg of Compound A, 25 mg of Compound E, and 40 mg of dexamethasone per day. […] For example, the patients in cohort 6 received 160 mg of Compound A, 25 mg of Compound E, and 40 mg of dexamethasone per day; the patients in cohort 7 received 160 mg of Compound A, 25 mg of Compound E, and 40 mg of dexamethasone twice daily; and the patients in cohort 8 received 240 mg of Compound A, 25 mg of Compound E, and 40 mg of dexamethasone twice daily. Peripheral blood samples were obtained for PK and PD analysis at specified time points.

[2] = system: H929 myeloma cells; test: Cell cycle distribution by flow cytometry, propidium iodide (H929); assay type: cell-based; details: H929, 3 and 5 days; Compound A 2 μM, Lenalidomide 2 μM, Pomalidomide 1 μM
Protocol: (§1) H929 (FIGS. 10A & 10B) or MM.1s (FIGS. 10C & 10D) myeloma cells were exposed to drug for 3 (FIGS. 10A & 10C) and 5 (FIGS. 10B & 10D) days and cell cycle distribution was assessed by flow cytometry via incorporation of propidium iodide. The relative fraction of cells in each stage of the cell cycle (GO/G1, S, and G2/M) as well as the fraction of dead cells (Sub G1) was then estimated.

[3] = system: H929 myeloma cells; test: Apoptosis by flow cytometry, Annexin V / propidium iodide (H929); assay type: cell-based; details: H929, 5 and 7 days; Compound A 2 μM, Lenalidomide 2 μM, Pomalidomide 1 μM
Protocol: (§2) H929 (FIGS. 11A & 11B) or MM.1s (FIGS. 11C & 11D) myeloma cells were exposed to drug for 5 (FIGS. 11A & 11C) and 7 (FIGS. 11B & 11D) days, and apoptosis was assessed by flow cytometry by measuring Annexin V binding and cellular permeability to propidium iodide. The relative fraction of cells that were live, in early apoptosis, in late apoptosis, or dead was then determined.

[4] = Phase 1b clinical trial: PK in peripheral blood samples
Protocol: as §4

[5] = Compound A monotherapy clinical trial (phase 1a)
Protocol: as §4

[6] = system: H929 cells; test: Immunoblot in H929 cells; assay type: cell-based
[7] = system: acetylated tubulin (a marker of HDAC6 inhibition); test: Phase 1b PD: acetylated tubulin in PBMC; assay type: in vivo, human; details: at ≥80 mg Compound A
Protocol: as §4

[8] = system: MM.1s myeloma cells; test: Cell cycle distribution by flow cytometry, propidium iodide (MM.1s); assay type: cell-based; details: 3 and 5 days, Compound A 2 μM, Lenalidomide 2 μM, Pomalidomide 1 μM
Protocol: as §1

[9] = system: MM.1s myeloma cells; test: Apoptosis by flow cytometry, Annexin V / propidium iodide (MM.1s); assay type: cell-based; details: 5 and 7 days, Compound A 2 μM, Lenalidomide 2 μM, Pomalidomide 1 μM
Protocol: as §2

[10] = human, in vivo
Protocol: as §4

[11] = system: HDAC1, 2, and 3; test: HDAC enzyme assays (HDAC1, 2, 3); assay type: biochemical
Protocol: (§3) Compounds for testing were diluted in DMSO to 50 fold the final concentration and a ten point three fold dilution series was made. The compounds were diluted in assay buffer (50 mM HEPES, pH 7.4, 100 mM KCl, 0.001% Tween-20, 0.05% BSA, 20 μM TCEP) to 6 fold their final concentration. The HDAC enzymes (purchased from BPS Biosciences) were diluted to 1.5 fold their final concentration in assay buffer. The tripeptide substrate and trypsin at 0.05 μM final concentration were diluted in assay buffer at 6 fold their final concentration. The final enzyme concentrations used in these assays were 3.3 ng/ml (HDAC1), 0.2 ng/ml (HDAC2), 0.08 ng/ml (HDAC3) and 2 ng/ml (HDAC6). The final substrate concentrations used were 16 μM (HDAC1), 10 μM (HDAC2), 17 μM (HDAC3) and 14 μM (HDAC6). Five μl of compound and 20 μl of enzyme were added to wells of a black, opaque 384 well plate in duplicate. Enzyme and compound were incubated together at room temperature for 10 minutes. Five μl of substrate was added to each well, the plate was shaken for 60 seconds and placed into a Victor 2 microtiter plate reader. The development of fluorescence was monitored for 60 min and the linear rate of the reaction was calculated. The IC50 was determined using Graph Pad Prism by a four parameter curve fit.

[12] = target: T1, HDAC6 (Homo sapiens, UniProt Q9UBN7); test: HDAC enzyme assays (HDAC6 selectivity); assay type: biochemical
T1 construct: purchased BPS Biosciences
T1 sequence (Q9UBN7 1-1215): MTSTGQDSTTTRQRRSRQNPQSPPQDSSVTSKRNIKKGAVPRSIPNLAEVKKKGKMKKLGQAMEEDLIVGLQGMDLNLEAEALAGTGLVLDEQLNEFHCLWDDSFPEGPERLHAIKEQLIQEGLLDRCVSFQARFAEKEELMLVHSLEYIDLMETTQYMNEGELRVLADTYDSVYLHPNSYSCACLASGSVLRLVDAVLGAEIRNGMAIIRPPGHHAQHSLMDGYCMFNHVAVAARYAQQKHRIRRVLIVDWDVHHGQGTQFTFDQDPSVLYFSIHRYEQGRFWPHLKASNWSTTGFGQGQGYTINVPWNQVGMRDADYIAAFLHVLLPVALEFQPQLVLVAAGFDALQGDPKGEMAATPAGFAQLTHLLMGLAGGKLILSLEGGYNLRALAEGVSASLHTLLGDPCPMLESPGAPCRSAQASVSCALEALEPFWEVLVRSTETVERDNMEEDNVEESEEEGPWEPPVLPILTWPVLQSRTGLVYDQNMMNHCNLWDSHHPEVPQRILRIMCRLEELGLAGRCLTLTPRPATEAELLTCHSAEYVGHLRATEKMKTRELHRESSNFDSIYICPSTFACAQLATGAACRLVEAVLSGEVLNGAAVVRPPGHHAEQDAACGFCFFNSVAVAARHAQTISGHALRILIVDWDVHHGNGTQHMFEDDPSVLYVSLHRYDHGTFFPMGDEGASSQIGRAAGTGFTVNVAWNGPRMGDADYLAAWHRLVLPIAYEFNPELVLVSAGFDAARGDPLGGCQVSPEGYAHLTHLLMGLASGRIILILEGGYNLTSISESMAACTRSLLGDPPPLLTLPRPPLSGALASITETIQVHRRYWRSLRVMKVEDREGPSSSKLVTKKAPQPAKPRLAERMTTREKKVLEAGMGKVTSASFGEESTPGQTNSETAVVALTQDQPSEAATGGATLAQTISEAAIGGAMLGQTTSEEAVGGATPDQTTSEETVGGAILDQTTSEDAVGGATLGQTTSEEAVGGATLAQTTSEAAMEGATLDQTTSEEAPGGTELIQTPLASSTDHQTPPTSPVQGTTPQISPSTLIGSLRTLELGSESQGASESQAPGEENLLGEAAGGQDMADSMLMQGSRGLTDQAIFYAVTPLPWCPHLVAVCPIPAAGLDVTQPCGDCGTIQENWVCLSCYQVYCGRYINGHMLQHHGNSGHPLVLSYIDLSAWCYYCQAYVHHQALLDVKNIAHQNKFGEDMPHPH
Protocol: as §3, with “Five μl of compound and 20 μl of enzyme were added to wells of a black, opaque 384 well plate in duplicate.” left out

Compound: O=C(CCCCCCNC(=O)c1cnc(N(c2ccccc2)c2ccccc2)nc1)NO [Compound A, 2-(diphenylamino)-N-(7-(hydroxyamino)-7-oxoheptyl) pyrimidine-5-carboxamide]
- increase in acetylated histones [1]: minimal increase
- cell cycle distribution (G0/G1, S, G2/M) [2]: small reduction
- percentage of apoptotic cells [3]: small increase in apoptosis
- Maximal levels of Compound A ([4]; at ≥80 mg, coadministered with lenalidomide and dexamethasone): ≥ 1 µM
- PK for Compound A versus analogous dose levels in phase 1a monotherapy ([4]; coadministration of lenalidomide): similar
- dose well-tolerated as a monotherapy (maximum dose examined) [5]: up to 360 mg/day
- acetylation of α-tubulin (inhibition of HDAC6) [6]: hyperacetylation
- increase in acetylated tubulin [7]: > 2 ×
- cell cycle distribution (G0/G1, S, G2/M) [8]: small reduction
- percentage of apoptotic cells [9]: small increase in apoptosis
- dose limiting toxicities (DLTs) [10]: not observed

- inhibition of HDAC1, 2, and 3 [11]: low level inhibition
Compound: O=C(CCCCCCNC(=O)c1cnc(N(c2ccccc2)c2ccccc2Cl)nc1)NO [Compound B, 2-((2-chlorophenyl)(phenyl)amino)-N-(7-(hydroxyamino)-7-oxoheptyl)pyrimidine-5-carboxamide]

- selective for HDAC6 over class I HDAC's [12]: more than 300 fold
Compound: O=C(NO)c1cnc(NC2(c3cccc(F)c3)CCCCC2)nc1 [Compound C, 2-((1-(3-fluorophenyl)cyclohexyl)amino)-N-hydroxypyrimidine-5-carboxamide]
